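Test compounds were applied to cells in 96-well plates for 48 hours at 5 doses. The concentration for 50% growth inhibition is given as GI50.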 Active and inactive are the calls of the source. Cut-off read from the data, not from the text of the source: active = GI50 up to about 1.1 µM and inactive = higher.
How the values were obtained:
Test in all cases: growth of human tumour cells (NCI), 48 h
786-0 = test system: 786-0
CAKI-1 = test system: CAKI-1
DU-145 = test system: DU-145
HOP-92 = test system: HOP-92
IGROV-1 = test system: IGROV-1
MDA-MB-231 = test system: MDA-MB-231
MOLT-4 = test system: MOLT-4
NCI-H460 = test system: NCI-H460
RPMI-8226 = test system: RPMI-8226
SF-295 = test system: SF-295
SK-OV-3 = test system: SK-OV-3
SN12C = test system: SN12C
SNB-19 = test system: SNB-19
SNB-75 = test system: SNB-75
SR = test system: SR
T47D = test system: T47D

Row | Structure (SMILES) | GI50 (786-0) | GI50 (CAKI-1) | GI50 (DU-145) | GI50 (HOP-92) | GI50 (IGROV-1) | GI50 (MDA-MB-231) | GI50 (MOLT-4) | GI50 (NCI-H460) | GI50 (RPMI-8226) | GI50 (SF-295) | GI50 (SK-OV-3) | GI50 (SN12C) | GI50 (SNB-19) | GI50 (SNB-75) | GI50 (SR) | GI50 (T47D)
1 | c1ccc2c(c1)[nH]c1c2cc[n+]2cc3c(cc12)CCCC3 | 2.28 µM (inactive) | 17.2 µM (inactive) | 2.69 µM (inactive) | 3.25 µM (inactive) | 7.18 µM (inactive) | 2 µM (inactive) | 1.18 µM (inactive) | 1.34 µM (inactive) | 1.53 µM (inactive) | 3.18 µM (inactive) | 3.87 µM (inactive) | 2.61 µM (inactive) | 3 µM (inactive) | 5.96 µM (inactive) | 1.75 µM (inactive) | 1.66 µM (inactive)
2 | NC(CCCCCP(=O)(c1ccccc1)C1C=CC=CC1)C(=O)O (stereo unspecified) |  | > 100 µM (inactive) | > 100 µM (inactive) | > 100 µM (inactive) | > 100 µM (inactive) | > 100 µM (inactive) | > 100 µM (inactive) | > 100 µM (inactive) | > 100 µM (inactive) | > 100 µM (inactive) | > 100 µM (inactive) | > 100 µM (inactive) | > 100 µM (inactive) | > 100 µM (inactive) | > 100 µM (inactive) | 57.8 µM (inactive)
3 | O=C(O)CCS/C(=C\C(SCCC(=O)O)c1ccc(Cl)cc1)c1ccc(Cl)cc1 (stereo unspecified) | 78.9 µM (inactive) | 37.2 µM (inactive) | 57.9 µM (inactive) | 25.8 µM (inactive) | 38.8 µM (inactive) | 71.4 µM (inactive) | 37.2 µM (inactive) | 50.1 µM (inactive) | 31 µM (inactive) | 33.4 µM (inactive) | > 100 µM (inactive) | 50 µM (inactive) | 40.7 µM (inactive) | 78.3 µM (inactive) | 29.4 µM (inactive) | 41.9 µM (inactive)
4 | Clc1ccc(Cc2nc3cc(Cl)c(Cl)cc3n2CC2CCCN3CCCCC23)cc1 (stereo unspecified) | 11 µM (inactive) | 14.7 µM (inactive) | 12 µM (inactive) | 12.2 µM (inactive) | 8.87 µM (inactive) | 4.13 µM (inactive) | 4.22 µM (inactive) | 7.53 µM (inactive) | 24.5 µM (inactive) | 13.4 µM (inactive) | 16.9 µM (inactive) | 12.3 µM (inactive) | 13.9 µM (inactive) | 7.76 µM (inactive) | 3.35 µM (inactive) | 18.1 µM (inactive)
5 | CN(C)/C=C/c1nnnn1-c1ccc(I)cc1 | 35.1 µM (inactive) | 22.3 µM (inactive) | 28.2 µM (inactive) | 14.2 µM (inactive) | 15.6 µM (inactive) | 16.6 µM (inactive) | 15.1 µM (inactive) | 31.1 µM (inactive) | 12.8 µM (inactive) | 25.8 µM (inactive) | 18.1 µM (inactive) | 14.9 µM (inactive) | 20.3 µM (inactive) | 11.1 µM (inactive) | 16.4 µM (inactive) | 9.44 µM (inactive)
6 | CCCCCC(/C=C/[C@@H]1CC(=O)C[C@H]1O[Si](C)(C)C(C)(C)C)OCOCCOC (stereo partly specified) | 3.74 µM (inactive) | 3.07 µM (inactive) | 16.3 µM (inactive) | 1.97 µM (inactive) | 3.24 µM (inactive) | 4.48 µM (inactive) | 1.75 µM (inactive) | 17.2 µM (inactive) | 2.61 µM (inactive) | 11 µM (inactive) | 17 µM (inactive) | 8.43 µM (inactive) | 4.52 µM (inactive) | 2.19 µM (inactive) | 1.5 µM (inactive) | 11.1 µM (inactive)
7 | COc1ccc(C(=O)N=C2N(c3ccccc3)C(=N/c3ccccc3)/C(=N\c3ccccc3)N2c2ccccc2)cc1 | 17.9 µM (inactive) | 39.9 µM (inactive) | > 100 µM (inactive) | 2.9 µM (inactive) | 54 µM (inactive) | > 62.8 µM (inactive) | > 100 µM (inactive) | 47.1 µM (inactive) | > 74.6 µM (inactive) | 33.3 µM (inactive) | 33.7 µM (inactive) | > 67.1 µM (inactive) | 19.2 µM (inactive) | 7.82 µM (inactive) | > 100 µM (inactive) | > 58.6 µM (inactive)
8 | O=c1c2cccnc2[nH]c2ccc3cn[nH]c3c12 | > 10 µM (inactive) | 8.77 µM (inactive) | > 10 µM (inactive) | > 10 µM (inactive) | 3.33 µM (inactive) | 8.53 µM (inactive) | > 10 µM (inactive) | 7.43 µM (inactive) | > 10 µM (inactive) | > 10 µM (inactive) | > 10 µM (inactive) | 9.06 µM (inactive) | > 10 µM (inactive) | 7.89 µM (inactive) | 3.29 µM (inactive) | > 10 µM (inactive)
9 | CNC(=O)N(CCC#N)CCN(C(=O)NC)c1ccccc1 | > 100 µM (inactive) | > 100 µM (inactive) | > 100 µM (inactive) | > 100 µM (inactive) | > 100 µM (inactive) | > 100 µM (inactive) | > 100 µM (inactive) | > 100 µM (inactive) | > 100 µM (inactive) | > 100 µM (inactive) | > 100 µM (inactive) | > 100 µM (inactive) | > 100 µM (inactive) | 65 µM (inactive) | > 100 µM (inactive) | > 100 µM (inactive)
10 | COc1ccc(C[C@@H]2OC3(C=CC(=O)CC3Sc3ccccc3)O[C@H]2Cc2ccc(OC)cc2)cc1 (stereo partly specified) | 0.151 µM (active) | 2.05 µM (inactive) | 2.23 µM (inactive) | 1.14 µM (inactive) | 0.904 µM (active) | 2.5 µM (inactive) | 0.282 µM (active) | 3.01 µM (inactive) | 0.31 µM (active) | 1.91 µM (inactive) | 3.15 µM (inactive) | 1.61 µM (inactive) | 2.61 µM (inactive) | 1.69 µM (inactive) | 0.187 µM (active) | 0.813 µM (active)
11 | [O-]/[N+](=N/c1ncc(-c2ccccc2)cn1)c1ncc(-c2ccccc2)cn1 | 99.5 µM (inactive) | > 100 µM (inactive) | > 100 µM (inactive) | 69 µM (inactive) | 29.9 µM (inactive) | > 100 µM (inactive) | > 64.6 µM (inactive) | > 100 µM (inactive) | > 64.6 µM (inactive) | 73.5 µM (inactive) | > 100 µM (inactive) | > 100 µM (inactive) | > 58.3 µM (inactive) | > 100 µM (inactive) | 16.4 µM (inactive) | > 79.8 µM (inactive)
12 | CC1(C)OC2OC(C(=O)c3ccccc3)C3OC(C)(C)OC3C2O1 (stereo unspecified) | > 100 µM (inactive) | > 100 µM (inactive) | > 100 µM (inactive) | > 100 µM (inactive) | > 100 µM (inactive) | > 100 µM (inactive) | > 100 µM (inactive) | > 100 µM (inactive) | > 100 µM (inactive) | > 100 µM (inactive) | > 100 µM (inactive) | > 100 µM (inactive) | > 100 µM (inactive) | > 100 µM (inactive) | > 100 µM (inactive) | > 100 µM (inactive)
13 | O=C(OCCN=C1c2ccccc2CCc2ccccc21)c1ccccc1 | > 100 µM (inactive) | > 100 µM (inactive) | > 100 µM (inactive) | > 100 µM (inactive) | > 100 µM (inactive) | > 100 µM (inactive) | 15.2 µM (inactive) | > 100 µM (inactive) | 13 µM (inactive) | > 100 µM (inactive) | > 100 µM (inactive) | > 100 µM (inactive) | > 100 µM (inactive) | > 100 µM (inactive) | 18 µM (inactive) | > 100 µM (inactive)
14 | Cc1nc2cc(/N=N/c3c(C)noc3C)ccc2[nH]1 | 28.1 µM (inactive) | 18.9 µM (inactive) | 27.7 µM (inactive) | 14.9 µM (inactive) | 12.6 µM (inactive) | 28.2 µM (inactive) | 17.9 µM (inactive) | 21.8 µM (inactive) | 17.9 µM (inactive) | 23.4 µM (inactive) | 18.9 µM (inactive) | 33.6 µM (inactive) | 43.9 µM (inactive) | 5.28 µM (inactive) | 16.9 µM (inactive) | 1.67 µM (inactive)
15 | Cc1ccccc1CN1CC2=C(CCN(Cc3ccccc3)C2=O)N2CCN=C12 | 8.89 µM (inactive) | 4.69 µM (inactive) | 6.14 µM (inactive) | 21.6 µM (inactive) | > 100 µM (inactive) | 4.45 µM (inactive) | 9.66 µM (inactive) | 4.24 µM (inactive) | 1.55 µM (inactive) | 3.21 µM (inactive) | 7.78 µM (inactive) | 5.6 µM (inactive) | 6.79 µM (inactive) | 6.08 µM (inactive) | 4.59 µM (inactive) | 4.8 µM (inactive)
16 | CC[C@@]12CCC(=S)N(CCSc3ccccc3)[C@@H]1c1c(n(S(=O)(=O)c3ccc(OC)cc3)c3ccccc13)CC2 | 63.1 µM (inactive) | > 100 µM (inactive) | > 100 µM (inactive) | 73.6 µM (inactive) | > 100 µM (inactive) | > 100 µM (inactive) | > 100 µM (inactive) | > 100 µM (inactive) | > 100 µM (inactive) | > 100 µM (inactive) | > 100 µM (inactive) | > 100 µM (inactive) | 32.9 µM (inactive) | 46.3 µM (inactive) | > 100 µM (inactive) | > 100 µM (inactive)
17 | O=C1OC(c2ccco2)=N/C1=C\c1ccc(Cl)c(Cl)c1 | 38 µM (inactive) | 91 µM (inactive) | 98.6 µM (inactive) | > 100 µM (inactive) | > 100 µM (inactive) | > 100 µM (inactive) | > 100 µM (inactive) | 88.7 µM (inactive) | > 100 µM (inactive) | > 100 µM (inactive) | 47.2 µM (inactive) | > 100 µM (inactive) | > 100 µM (inactive) | 53.8 µM (inactive) | > 100 µM (inactive) | 40.9 µM (inactive)

Reference: ChEMBL document CHEMBL1201862, “PubChem BioAssay data set” (2004)
